Measured values as given in US20100111947A1, “PHARMACEUTICAL COMPOSITION COMPRISING ANTIBODY COMPOSITION WHICH SPECIFICALLY BINDS TO GANGLIOSIDE GM2” (KYOWA HAKKO KIRIN CO., LTD., priority 2008, published 2010).

Tested on: KMS-11 cells (human multiple myeloma cell)
Test: Antitumor effect against KMS-11 cells transplanted subcutaneously into SCID mice (tumor volume V/V0, T/C)
Format: in vivo
Details: SCID mouse, KMS-11 xenograft, KM8969 1 mg/kg, L-PAM 3 mg/kg, tail vein
Procedure: Ten days after the cell transplantation, a diameter of a tumor was measured with calipers, and a tumor volume was calculated using the following formula.
(Formula) Tumor volume=short diameter×short diameter […]×0.5
Individuals having the tumor volume within the range of 140 to 184 mm^3 were selected, and grouped such that the average of tumor volume was to be almost the same. Each of following administration groups A to D was administered to the mice. Incidentally, the grouped day was defined as Day 0.
C. Group administering Melphalan (hereinafter referred to as L-PAM; Sigma) solely: 3 mg/kg was administered on Day 0 and Day 7.
With time, the tumor volume was measured. The antitumor effect was evaluated by comparing average values of a tumor volume change (V/V0) when the tumor volume on Day 0 in each group was defined as V0.

With N[C@@H](Cc1ccc(N(CCCl)CCCl)cc1)C(=O)O [L-PAM, Melphalan] the “T/C (V/V0 of group divided by V/V0 of negative control group)” value (Day 0) was 1.0000, the “T/C (V/V0 of group divided by V/V0 of negative control group)” value (Day 4) was 0.8624 and the “T/C (V/V0 of group divided by V/V0 of negative control group)” value (Day 7) was 0.8354. The “T/C (V/V0 of group divided by V/V0 of negative control group)” value (Day 10) was 0.6430, the “T/C (V/V0 of group divided by V/V0 of negative control group)” value (Day 14) was 0.5255 and the “T/C (V/V0 of group divided by V/V0 of negative control group)” value (Day 17) was 0.4159. For the same molecule, the “T/C (V/V0 of group divided by V/V0 of negative control group)” value (Day 21) was 0.2881, the “T/C (V/V0 of group divided by V/V0 of negative control group)” value (Day 24) was 0.2872 and the “T/C (V/V0 of group divided by V/V0 of negative control group)” value (Day 28) was 0.2348.
